Results reported in patent US7687079B2, “Methods of treating ileus” (priority 2002, dated 2010).
“Also recorded” adds a separate entry of the source.

Key:
PGE2 = PGE2 release from muscularis extracts (marker of COX-2 activity); type: in vivo, mouse; conditions: 24 hr
Description: Protein and Nitric Oxide Determinations. The small bowel of control and mice subjected to intestinal manipulation was removed under sterile conditions, 4 or 24 hours post-operatively, leaving the colon in situ. The small intestine was transferred to a beaker containing chilled Hanks balanced salt solution (Sigma, St. Louis, Mo.) with 200 U/ml penicillin G and 200 μg/ml streptomycin (HBSS), the lumen flushed, and the tissue transferred to a second beaker of HBSS. The muscularis was harvested as described above for real time RT-PCR. Tissues were maintained under sterile conditions at 3 to 5° C. throughout the harvesting procedure. Isolated muscularis was blotted onto sterile gauze, and the wet weight determined to obtain aliquots of 40 to 60 mg. […]
After the incubation period, the muscle tissue was pelleted, and aliquots of culture medium were frozen in liquid nitrogen and stored at −80° C. The levels of IL-6, IL-1β, PGE2, and IL-10 proteins secreted into the culture medium were determined using commercially available ELISA kits (R&D Systems, Minneapolis, Minn.) according to the manufacturer's instructions. […] Nitrate/nitrate levels were measured 24 hrs postoperatively using commercially available test kit (Oxford Biomedical Research, Oxford, Mich.) and quantified according to the manufacturer's directions. […]

IL-6 mRNA = IL-6 mRNA in muscularis after IM (real time RT-PCR); type: in vivo, mouse; conditions: IM + CO, 3 and 6 hr time points
Description: Pro- and anti-inflammatory gene expression was determined by real time RT-PCR. The small intestinal muscularis externa was collected at 4 time points (3, 6, 12, and 24 hr) postoperatively and snap frozen in liquid nitrogen. Total RNA extraction was performed using the guanidium-thiocyanate phenol-chloroform extraction method as described in Eskandari et al. (Id.) RNA pellets were resuspended in RNA-secure resuspension solution (Ambion Inc., Austin, Tex.), followed by removal of potential contaminating DNA by treatment with DNase I (DNA-Free Kit, Ambion Inc., Austin, Tex.). Equal aliquots (5 μg) of total RNA from each sample were quantified by spectrophotometry (wavelength […]). Peak mRNA expression was quantified in duplicate by SYBR Green two-step, real-time RT-PCR. β-actin was used as the endogenous reference. […] Real-time PCR data were plotted as the ΔRn fluorescence signal versus the cycle number. […] Quantification of mRNA expression was normalized to β-actin and calculated relative to control using the comparative CT method.
To exclude PCR amplification of contaminating genomic DNA, RT-negative controls (samples containing RNA which was not reverse transcribed) were included in each PCR reaction. […] PCR amplification efficiency of each target cDNA was measured by determining the colinearity of serial dilutions. […]

[1] = system: rats with ileus induced by mild manipulation of the small intestine; assay: Example 4 intestinal transit (geometric center) after IM, CO pre-treatment; type: in vivo, rat
Description: Ileus was induced by mild manipulation of the small intestine (IM). Rats were exposed to decreasing concentrations of CO (250, 125, 75, 30 ppm) in air for a period of either 1 hr or 3 hr prior to laparotomy (n=6). Results were compared to those obtained using previously established protocols of exposure to CO at 250 ppm 1 hr before and for 24 hr after laparotomy. Gastrointestinal function was assessed in vivo by determining intestinal transit from the distribution throughout the GI tract of orally fed fluorescein labeled dextran. The median distribution of the labeled dextran was determined for statistical comparison by calculating the geometric center (GC).

IL-1β protein = IL-1β protein release from muscularis extracts (ELISA); type: in vivo, mouse
Description: Protein and Nitric Oxide Determinations. The small bowel of control and mice subjected to intestinal manipulation was removed under sterile conditions, 4 or 24 hours post-operatively, leaving the colon in situ. The small intestine was transferred to a beaker containing chilled Hanks balanced salt solution (Sigma, St. Louis, Mo.) with 200 U/ml penicillin G and 200 μg/ml streptomycin (HBSS), the lumen flushed, and the tissue transferred to a second beaker of HBSS. The muscularis was harvested as described above for real time RT-PCR. Tissues were maintained under sterile conditions at 3 to 5° C. throughout the harvesting procedure. Isolated muscularis was blotted onto sterile gauze, and the wet weight determined to obtain aliquots of 40 to 60 mg. Tissue aliquots were washed twice in HBSS, transferred to 35 mm well culture plates containing 3 ml of serum-free DMEM containing penicillin/streptomycin, and incubated for 24 hrs in a humidified 5% CO2 incubator at 37° C. Pharmacological agents added to the culture medium were filter sterilized prior to use.
After the incubation period, the muscle tissue was pelleted, and aliquots of culture medium were frozen in liquid nitrogen and stored at −80° C. The levels of IL-6, IL-1β, PGE2, and IL-10 proteins secreted into the culture medium were determined using commercially available ELISA kits (R&D Systems, Minneapolis, Minn.) according to the manufacturer's instructions. Nitric oxide (NO) released into the culture medium was estimated by measuring the stable end products of NO metabolism. Nitrate/nitrate levels were measured 24 hrs postoperatively using commercially available test kit (Oxford Biomedical Research, Oxford, Mich.) and quantified according to the manufacturer's directions. In this assay system, nitrate is reduced to nitrite using granulated cadmium, and the total nitrite concentration is subsequently measured using the Griess reaction. All measurements were normalized to tissue wet weight.

[2] = system: MPO+ cells infiltrating the muscularis; assay: MPO histochemistry, leukocytes infiltrating intestinal muscularis after IM; type: in vivo, mouse; conditions: control and IM groups, 24 hr
Description: MPO Histochemistry. Muscularis whole-mounts were prepared from the mid-jejunum collected 24 hr post-operatively. Segments of intestine were immersed in KRB in a Sylgard lined glass dish (Midland, Mich.) and pinned without stretching along the mesenteric border. The length and width of the segments were measured with a caliper. The jejunal segment was then opened along the mesenteric border and stretched to 150% of the length and 250% of the width. The mucosa was removed using fine forceps, and the remaining tissue fixed in 100% denatured ethanol for 30 min. […] Tissues were mounted on glass slides using Gel/Mount™ (Biomedia Corp., Foster City, Calif.), cover-slipped and inspected by light microscopy (Nikon Microphot-FXA, Fryer, Huntley, Ill.) at a magnification of 200×. PMN's were counted in five to six adjacent optical fields centered between the mesenteric and antimesenteric borders.

iNOS mRNA = iNOS mRNA in muscularis after IM (real time RT-PCR); type: in vivo, mouse; conditions: for iNOS expression, fold increase: naive mice
Description: Pro- and anti-inflammatory gene expression was determined by real time RT-PCR. The small intestinal muscularis externa was collected at 4 time points (3, 6, 12, and 24 hr) postoperatively and snap frozen in liquid nitrogen. Total RNA extraction was performed using the guanidium-thiocyanate phenol-chloroform extraction method as described in Eskandari et al. (Id.) RNA pellets were resuspended in RNA-secure resuspension solution (Ambion Inc., Austin, Tex.), followed by removal of potential contaminating DNA by treatment with DNase I (DNA-Free Kit, Ambion Inc., Austin, Tex.). Equal aliquots (5 μg) of total RNA from each sample were quantified by spectrophotometry (wavelength […]). Peak mRNA expression was quantified in duplicate by SYBR Green two-step, real-time RT-PCR. β-actin was used as the endogenous reference. Aliquoted RNA (40 ng) was subjected to first-strand complementary DNA (cDNA) synthesis using random hexamers (PE applied Biosystems, Foster City, Calif.) and Super Script II (Life Technologies, Rockville, Md.). Primers were taken from the literature or designed according to published sequences (Table 3). PCR reaction mixture was prepared using SYBR Green PCR Core Reagents (PE Applied Biosystems). Each sample was estimated in duplicate using the conditions recommended by the manufacturer. Real-time PCR data were plotted as the ΔRn fluorescence signal versus the cycle number. An arbitrary threshold was set to the midlinear portion of the log ΔRn cycle plot. The threshold cycle (CT) is defined as the cycle number at which the ΔRn, crosses this threshold. Quantification of mRNA expression was normalized to β-actin and calculated relative to control using the comparative CT method.
To exclude PCR amplification of contaminating genomic DNA, RT-negative controls (samples containing RNA which was not reverse transcribed) were included in each PCR reaction. Melting curve analyses were performed for each reaction to ensure amplification of specific product. […] PCR amplification efficiency of each target cDNA was measured by determining the colinearity of serial dilutions. […]

[C-]#[O+] [CO, carbon monoxide]
IM-induced PGE2 release (PGE2; IM + CO): no effect
PGE2 release (PGE2; control muscularis, inhalation of CO alone): significant increases; also recorded: significantly increased
manipulation-induced IL-6 gene expression (IL-6 mRNA): no effect
geometric center (GC) ([1]; IM rats, 250 ppm for 1 hr only prior to surgery): 7.2±0.3
geometric center (GC) ([1]; IM rats, 250 ppm pretreatment for 3 hr): 8.6±0.3
geometric center (GC) ([1]; IM rats, 250 ppm, 1 hr pretreatment followed by 24 hr post-treatment): 8.2±0.4
geometric center (GC) ([1]; IM rats, pre-treating with 30 ppm): 7.0±0.2
geometric center (GC) ([1]; IM rats, pre-treating with 75 ppm): 8.8±0.1
geometric center (GC) ([1]; IM rats, pre-treating with 125 ppm): 8.6±0.4
geometric center (GC) ([1]; unoperated rats, 250 ppm for 24 hr): 8.8±0.4
IL-1β protein release (IL-1β protein; IM + CO vs IM, 24 hr after surgery): significantly attenuated
reduction of IL-1β protein release (IL-1β protein; IM + CO vs IM, extracts harvested 24 hr after surgery): 60%
IL-1β protein (IL-1β protein; control mice treated with CO): no IL-1β protein could be detected
magnitude of the leukocyte infiltrate (MPO+ cells) [2]: no effect
iNOS expression (iNOS mRNA; naive mice exposed to CO): no effect
iNOS expression, fold increase (iNOS mRNA; CO 3 hr): 1.04±0.19 fold
iNOS expression, fold increase (iNOS mRNA; CO 6 hr): 1.26±0.19 fold
